The test system of the data set is Bone marrow MSCs. Nature of the data set: HGF-1 production by bone marrow MSCs cultured with rapamycin (ELISA). Type of data set: cell-based. Particulars: bone marrow MSCs (ATCC), 96 well plates, indicated concentrations of rapamycin and time points, ELISA (R&D Systems), FIG. 1. Here is the method: Bone marrow MSCs were purchased from American Type Culture Collection (hereinafter, “ATCC”) and grown in DMEM media with 10% fetal calf serum. Cells were allowed to expand to 100% confluence. The media was subsequently washed with phosphate buffered saline (PBS). Cells were plated on 96 well plates and cultured in the presence of the indicated concentrations of rapamycin for the indicated time points. Hepatocyte Growth Factor (HGF-1) expression was assessed using ELISA (R&D Systems).
On the technique in general: An ELISA detects its analyte on a solid surface through an enzyme-linked reagent.

Consider `CO[C@H]1C[C@@H]2CC[C@@H](C)[C@@](O)(O2)C(=O)C(=O)N2CCCC[C@H]2C(=O)O[C@H]([C@H](C)C[C@@H]2CC[C@@H](O)[C@H](OC)C2)CC(=O)[C@H](C)/C=C(\C)[C@@H](O)[C@@H](OC)C(=O)[C@H](C)C[C@H](C)/C=C/C=C/C=C/1C` [rapamycin, Rapamycin], for which the “Hepatocyte Growth Factor (HGF-1) expression / production” value is listed as “significant increase in production of HGF-1”.

For the origin of these results see patent US20210386789A1, “Enhancement of Mesenchymal Stem Cell Anti-inflammatory and Regenerative Activity Using mTOR Inhibitors” (BRAIN CANCER RESEARCH INSTITUTE, priority 2020, published 2021).
